Reference: ChEMBL document CHEMBL1143115, “Synthesis and biological properties of beta-turned Abeta(31-35) constrained analogues” (Bioorg Med Chem Lett, 2008)
pKd: −log10 of the molar value. Where a SMILES comes first, the peptide text is derived from it. [ ]: non-standard residue; d: D form. αMeP = C[C@@]1(C(=O)O)CCCN1; Aze = O=C(O)[C@@H]1CCN1; Aib = CC(C)(N)C(=O)O

Key:
[1] = Neurotoxicity in Wistar rat neuronal cells assessed as induction of mortality at 10 uM; assay type: toxicity, cell-based
[2] = Neurotoxicity in Wistar rat neuronal cells assessed as induction of mortality at 100 uM; assay type: toxicity, cell-based
[3] = Binding affinity to immobilized amyloid beta 25-35 by Surface plasmon resonance
[4] = Protective effect against beta amyloid oligomers induced toxicity in Wistar rat neuronal cells at 100 uM; assay type: functional

Row | Compound | pKd [3] | further results
1 | CC[C@H](C)[C@H](N)C(=O)N[C@H](C(=O)NCC(=O)N[C@@H](CC(C)C)C(=O)N[C@@H](CCSC)C(N)=O)[C@@H](C)CC (H-IIGLM-NH2) | – | Activity [1]: 10%; Activity [2]: 10%
2 | CC[C@H](C)[C@H](N)C(=O)N[C@H](C(=O)NCC(=O)N[C@@H](CC(C)C)C(=O)N[C@@H](CCSC)C(=O)O)[C@@H](C)CC (H-IIGLM-OH) | – | Activity [1]: 21%
3 | CC[C@H](C)[C@H](N)C(=O)N[C@H](C(=O)NC(C)(C)C(=O)N[C@@H](CC(C)C)C(=O)N[C@@H](CCSC)C(N)=O)[C@@H](C)CC (H-II[Aib]LM-NH2) | 2.59 | Activity [4]: 24%
4 | CC[C@H](C)[C@H](N)C(=O)N[C@H](C(=O)N1CCC[C@@]1(C)C(=O)N[C@@H](CC(C)C)C(=O)N[C@@H](CCSC)C(N)=O)[C@@H](C)CC (H-II[αMeP]LM-NH2) | 2.82 | –
5 | Nc1c(/N=N/c2ccc(-c3ccc(/N=N/c4cc(S(=O)(=O)O)c5ccccc5c4N)cc3)cc2)cc(S(=O)(=O)O)c2ccccc12 [CONGO RED] | 4.89 | –

Now from value to compound, other results behind:

Row | pKd [3] | Compound | further results
6 | 2.35 | CC[C@H](C)[C@H](N)C(=O)N[C@H](C(=O)N1CCC[C@H]1C(=O)N[C@@H](CC(C)C)C(=O)N[C@@H](CCSC)C(N)=O)[C@@H](C)CC (H-IIPLM-NH2) | –
7 | 2.34 | CC[C@H](C)[C@H](N)C(=O)N[C@H](C(=O)N1CC[C@H]1C(=O)N[C@@H](CC(C)C)C(=O)N[C@@H](CCSC)C(N)=O)[C@@H](C)CC (H-II[Aze]LM-NH2) | –
